In patent US20190184069A1, “ANTIMICROBIAL COMPOSITIONS COMPRISING MINOCYCLINE AND DEGRADATION PRODUCTS OF OXIDIZED CELLULOSE” (Omrix Biopharmaceuticals Ltd., priority 2017, published 2019):
Entries after “also recorded” stand apart in the source; their conditions may differ.

What was measured:
[1] = test system: S. aureus; assay: Primary stage MIC measurement of antibiotic alone (OD 600 nm growth curves, 18 h); assay type: cell-based, Staphylococcus aureus
Description: The following day, the turbidity of the actively-growing broth culture was adjusted with Calcium-adjusted Mueller Hinton broth II (MHBII) to be equivalent to that of a 0.5 McFarland standard (1×10^8 CFU/ml). The broth culture was maintained under ambient conditions prior to use.
The method used in this stage was based on the classic Minimum Inhibitory Concentration (MIC) measurements, as described by the Clinical and Laboratory Standards Institute (CLSI) document M07-A9: “Method for Dilution Antimicrobial Susceptibility Test for Bacteria that Grow Aerobically”. While classic MIC measurements require visual inspection of plates for bacterial growth after 18 hours, growth was monitored in the present study according to optical density (OD) at 600 nm, using an ELISA reader (MultiSkan™ FC ELISA reader, Thermo Fisher Scientific, Massachusetts, USA), thereby obtaining bacterial growth curves for tested antibiotic solutions.
Columns 1 and 3-12: 100 μl of MHBII alone was added to each well.
[…]: 200 μl of a solution of antibiotic in MHBII at the highest concentration to be tested was added to each well.
A series of 2-fold dilutions was performed, wherein 100 μl of solution of antibiotic was withdrawn from each well of column 2, transferred to the corresponding well of column 3, and mixed.
The dilution was then repeated by transfer from column 3 to column 4, and so on, until column 11, when the 100 μl of solution of antibiotic withdrawn from each well of column 11 was discarded.
(§1) The 5×10^6 CFU/ml stock suspension which had been prepared in advance was transferred into a reservoir and 10 μl of the stock suspension were added into each well of columns 2-11 using a multichannel pipette to obtain a final 5×10^5 CFU/ml suspension.
The plate was then incubated at 37° C. with shaking in the ELISA reader and the optical density at 600 nm was read every 20 minutes for a total of 18 hours.
The average OD reading obtained for each antibiotic concentration was calculated and plotted against time to obtain a growth curve.
The MIC was determined as the first antibiotic concentration at which […] by the end of the 18-hour period.

[2] = test system: S. aureus; assay: Secondary stage: bacterial growth (ET50/MIC) of antibiotics with or without extract of degradation products of ORC; assay type: cell-based, Staphylococcus aureus
Description: ORC pads which had not been impregnated with antibiotic (referred to herein as “blank ORC pads”), were subjected to extraction and degradation in PBS for three hours at ambient temperature. Extract obtained from these blank ORC pads is referred to herein as “blank extract of degradation products of ORC”.
Blank ORC pads were subjected to extraction and degradation in a solution of antibiotic in PBS. Extracts of degradation products obtained from blank ORC pads in a solution of antibiotic in PBS is referred to herein as “extracts of degradation products of blank ORC in antibiotic”.
Due to the acidity of ORC, which provides some antibiotic effect, the size of the pad used was small i.e. approximately 1×1.5 inch, weighing between 65-75 mg (70 mg on average) in order to prevent the ORC from affecting the final pH of the assay and therefore the growth of the bacteria.
15 ml tubes, each containing 3 ml of an antibiotic solution at a known concentration in sterile PBS, were prepared in duplicate.
Blank ORC pads were subjected to extraction and degradation in the antibiotic solution by immersing the ORC pads in the antibiotic solution for 3-5 hours at ambient temperature on a roller mixer (Stuart, Cat#SRT9D).
Blank extract of degradation products of ORC and extract in antibiotic of degradation products of ORC, prepared as described above, were diluted 10 folds in MHBII in sterile 15 ml capped tubes.
as §1
Columns 3 to 6, rows B to F, were filled with the Blank ORC extracted in antibiotic at decreasing concentrations 1 to 5, diluted 10 folds in MHBII. Each sample tested was placed in 4 well repeats for statistical results.
Columns 7 to 10, rows B to F, were filled with the antibiotic solution (AB) at decreasing concentrations 1 to 5, diluted 10 folds in MHBII. Each sample tested was placed in 4 well repeats for statistical results.
Columns 3 to 6, row G, were filled with the blank extract of degradation products of ORC (PBS-ORC) diluted 10 folds in MHBII.
The plate was incubated at 37° C. with shaking in the ELISA reader and the optical density at 600 nm was read every 20 minutes for a total of 18 hours.
The average and standard deviation for OD readings was calculated for each time point of the wells using Excel. The average values were plotted against time to obtain a graph of the bacterial growth curves in the presence of each of the antibiotics tested.
In some cases, the average OD was plotted for a single endpoint of 800 minutes for the various antibiotic treatments and controls.
The average values were also entered into the GraphPad Prism program (GraphPad Software Inc., CA, USA) in order to calculate the Effective Time 50 (ET50) i.e. the time, in minutes, required for the antibiotic to induce a response halfway between the baseline and maximum, where the maximum is the bacterial growth in MHBII with PBS. This provides a quantifiable measure of the efficacy of the antibiotics tested and enables comparison of the various samples tested.

`CN(C)c1ccc(O)c2c1C[C@H]1C[C@H]3[C@H](N(C)C)C(O)=C(C(N)=O)C(=O)[C@@]3(O)C(O)=C1C2=O` [Minocycline, minocycline] was tested, and the “MIC as single antibiotics in the absence of ORC (first stage MIC results)” value [1] was 0.25 µg/mL, the ET50 ([2]; minocycline 0.05 μg/ml, +ORC degradation products) was 901.1 min and the ET50 ([2]; minocycline 0.05 μg/ml, +ORC degradation products, listed as minocycline) was 901 min. The ET50 ([2]; minocycline 0.05 μg/ml, −ORC) was 428.1 min, the ET50 ([2]; minocycline 0.1 μg/ml, +ORC degradation products) was over 2000 min and the ET50 ([2]; minocycline 0.1 μg/ml, +ORC degradation products, listed as minocycline) was “over 2000 minutes”. It also gave an ET50 ([2]; minocycline 0.1 μg/ml, −ORC) of 555.1 min, an ET50 ([2]; minocycline 0.1 μg/ml, −ORC, listed as minocycline) of 555 min and an ET50 ([2]; minocycline 0.2 μg/ml, +ORC degradation products) of over 2000 min. For the same molecule, the ET50 ([2]; minocycline 0.2 μg/ml, +ORC degradation products, listed as minocycline) was “over 2000 minutes”, the ET50 ([2]; minocycline 0.2 μg/ml, −ORC) was 1771 min and the ET50 ([2]; minocycline 0.4 μg/ml, +ORC degradation products) was over 2000 min. For the same molecule, the ET50 ([2]; minocycline 0.4 μg/ml, −ORC) was over 2000 min, the ET50 ([2]; minocycline 0.4 μg/ml, −ORC, listed as minocycline) was “above 2000 minutes” and the ET50 ([2]; minocycline 0.5 μg/ml, +ORC degradation products) was over 2000 min. It also gave an ET50 ([2]; minocycline 0.5 μg/ml, −ORC) of over 2000 min.

In the case of `CO[C@H]1/C=C/O[C@@]2(C)Oc3c(C)c(O)c4c(O)c(c(/C=N/N5CCN(C)CC5)c(O)c4c3C2=O)NC(=O)/C(C)=C\C=C\[C@H](C)[C@H](O)[C@@H](C)[C@@H](O)[C@@H](C)[C@H](OC(C)=O)[C@@H]1C` [Rifampin, rifampin], the “MIC as single antibiotics in the absence of ORC (first stage MIC results)” value [1] is reported as 0.015 µg/mL, the “Effect of addition of degradation products of ORC on the antibiotic activity” value ([2]; antibiotic with versus without ORC degradation products) is reported as “reduction in the antibiotic activity; also recorded: interfere with the antibiotic activity; also recorded: lowering of the antibiotic activity; also recorded: impaired” and the ET50 ([2]; rifampin 0.015 μg/ml, +ORC degradation products) is reported as 440.5 min. The ET50 ([2]; rifampin 0.015 μg/ml, −ORC) was 470.7 min, the ET50 ([2]; rifampin 0.031 μg/ml, +ORC degradation products) was 436.3 min and the ET50 ([2]; rifampin 0.031 μg/ml, −ORC) was 448.4 min. The ET50 ([2]; rifampin 0.062 μg/ml, +ORC degradation products) was 432.8 min, the ET50 ([2]; rifampin 0.062 μg/ml, +ORC degradation products, listed as rifampin) was 430 min and the ET50 ([2]; rifampin 0.062 μg/ml, −ORC) was 669.1 min. For the same molecule, the ET50 ([2]; rifampin 0.125 μg/ml, +ORC degradation products) was 432.3 min, the ET50 ([2]; rifampin 0.125 μg/ml, +ORC degradation products, listed as rifampin) was “around 430 minutes” and the ET50 ([2]; rifampin 0.125 μg/ml, −ORC) was “no growth at all”. The ET50 ([2]; rifampin 0.25 μg/ml, +ORC degradation products) was 430.8 min, the ET50 ([2]; rifampin 0.25 μg/ml, +ORC degradation products, listed as rifampin) was “around 430 minutes” and the ET50 ([2]; rifampin 0.25 μg/ml, −ORC) was “no growth at all”.
